From US9353107B2 (Aurigene Discovery Technologies Limited, priority 2012, dated 2016)
Where a name gives a salt, the structure may show the parent alone.

Target: T1, recombinant human ALK enzyme (ALK WT) (Homo sapiens, UniProt Q9UM73)
T1 construct: purchased Carna Biosciences 08-518
Experiment: ALK WT cell free enzymatic assay (TR-FRET)
Format: biochemical
Details: 1 μM ATP; for IC50: 10 point dose response; for inhibition at 0.1 µM: compound at 100 nM; for inhibition at 0.1 µM / inhibition at 1 µM: 30 min pre-incubation; for inhibition at 1 µM: compound at 1 μM
Summary of the method: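 Read-out is TR-FRET (665 nm/615 nm ratio) using an Eu-labeled anti-phosphotyrosine antibody. Compound is pre-incubated 30 min with recombinant human ALK, then reacted 30 min with 1 μM ATP and 40 nM Poly GT substrate. Values are percent inhibition at 100 nM and 1 μM, plus IC50 from 10-point variable-slope regression.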

T1 sequence (Q9UM73 1058-1620 limits assumed): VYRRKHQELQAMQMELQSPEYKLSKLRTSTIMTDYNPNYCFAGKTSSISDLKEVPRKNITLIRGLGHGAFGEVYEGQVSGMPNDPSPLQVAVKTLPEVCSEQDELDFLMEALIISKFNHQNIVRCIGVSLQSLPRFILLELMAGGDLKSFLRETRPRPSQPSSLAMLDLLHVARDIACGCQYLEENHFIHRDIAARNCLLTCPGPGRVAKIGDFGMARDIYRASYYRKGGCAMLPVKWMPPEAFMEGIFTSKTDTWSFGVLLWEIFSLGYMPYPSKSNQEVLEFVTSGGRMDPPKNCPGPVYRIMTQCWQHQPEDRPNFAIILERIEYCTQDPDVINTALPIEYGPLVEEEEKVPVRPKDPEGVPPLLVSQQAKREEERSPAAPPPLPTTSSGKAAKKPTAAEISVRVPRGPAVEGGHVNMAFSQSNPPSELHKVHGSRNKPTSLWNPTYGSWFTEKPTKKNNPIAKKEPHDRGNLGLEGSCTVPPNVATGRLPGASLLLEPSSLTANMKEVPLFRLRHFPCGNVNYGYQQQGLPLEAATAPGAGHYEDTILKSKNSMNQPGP

Q: What does the source list for CN(C)CC(=O)N1CCN(c2ccc(-c3cnc4[nH]cc(-c5cnn(Cc6cccc(F)c6)c5)c4c3)cc2)CC1 [Example 127, 2-(dimethylamino)-1-(4-(4-(3-(1-(3-fluorobenzyl)-1H-pyrazol-4-yl)-1H-pyrrolo[2,3-b]pyridin-5-yl)phenyl)piperazin-1-yl)ethanone]?
A: IC50: < 50 nM; inhibition at 0.1 µM: 96%; inhibition at 1 µM: 97%

Q: For CC(C)N1CCN(c2cccc(-c3cnc4[nH]cc(-c5cnn(Cc6cccc(F)c6)c5)c4c3)c2)CC1 [Example 35, 3-(1-(3-fluorobenzyl)-1H-pyrazol-4-yl)-5-(3-(4-isopropylpiperazin-1-yl)phenyl)-1H-pyrrolo[2,3-b]pyridine], which IC50 is on record?
A: The IC50 was under 50 nM.

Q: And the inhibition at 0.1 µM?
A: The inhibition at 0.1 µM was 98%.

Q: And the inhibition at 1 µM?
A: The inhibition at 1 µM was 99%.

Q: What does the source list for c1cncc(Cn2cc(-c3c[nH]c4ncc(-c5ccc(N6CCNCC6)cc5)cc34)cn2)c1 [Example 131, 5-(4-(piperazin-1-yl)phenyl)-3-(1-(pyridin-3-ylmethyl)-1H-pyrazol-4-yl)-1H-pyrrolo[2,3-b]pyridine]?
A: IC50: < 50 nM; inhibition at 0.1 µM: 83%; inhibition at 1 µM: 99%

Q: Which IC50 does the source give for CS(=O)(=O)N1CCN(c2ccc(-c3cnc4[nH]cc(-c5cnn(Cc6cccc(F)c6)c5)c4c3)cn2)CC1 [Example 158, 3-(1-(3-fluorobenzyl)-1H-pyrazol-4-yl)-5-(6-(4-(methylsulfonyl)piperazin-1-yl)pyridin-3-yl)-1H-pyrrolo[2,3-b]pyridine] here?
A: Its IC50 is under 50 nM.

Q: What about the inhibition at 0.1 µM of the same compound?
A: Its inhibition at 0.1 µM is 85%.

Q: What about the inhibition at 1 µM of the same compound?
A: Its inhibition at 1 µM is 94%.

Q: For c1cncc(Cn2cc(-c3c[nH]c4ncc(-c5ccc(C6CCNCC6)cc5)cc34)cn2)c1 [Example 89, 5-(4-(piperidin-4-yl)phenyl)-3-(1-(pyridin-3-ylmethyl)-1H-pyrazol-4-yl)-1H-pyrrolo[2,3-b]pyridine], which IC50 is on record?
A: The IC50 was under 50 nM.

Q: And the inhibition at 0.1 µM?
A: Its inhibition at 0.1 µM is 84%.

Q: What about the inhibition at 1 µM of the same compound?
A: Its inhibition at 1 µM is 98%.

Q: With Cc1c(-c2c[nH]c3ncc(-c4ccc(N5CCN(C[C@H](C)O)CC5)nc4)cc23)cnn1Cc1cccc(F)c1 [Example 162, (S)-1-(4-(5-(3-(1-(3-fluorobenzyl)-5-methyl-1H-pyrazol-4-yl)-1H-pyrrolo[2,3-b]pyridin-5-yl)pyridin-2-yl)piperazin-1-yl)propan-2-ol] as the compound, how does the IC50 read?
A: Its IC50 is under 50 nM.

Q: And the inhibition at 0.1 µM?
A: Its inhibition at 0.1 µM is 75%.

Q: And the inhibition at 1 µM?
A: Its inhibition at 1 µM is 96%.

Q: Which results are given for Cc1c(-c2c[nH]c3ncc(-c4ccc(N5CCNCC5)cc4)cc23)cnn1Cc1cccc(F)c1 [Example 44, 3-(1-(3-fluorobenzyl)-5-methyl-1H-pyrazol-4-yl)-5-(4-(piperazin-1-yl)phenyl)-1H-pyrrolo[2,3-b]pyridine hydrochloride]?
A: IC50: < 50 nM; inhibition at 0.1 µM: 95%; inhibition at 1 µM: 100%

Q: What does the source list for CC(=O)Nc1cccc(Cn2nc(C)c(-c3c[nH]c4ncc(-c5ccc(N6CCNCC6)cc5)cc34)c2C)c1 [Example 50, N-(3-((3,5-dimethyl-4-(5-(4-(piperazin-1-yl)phenyl)-1H-pyrrolo[2,3-b]pyridin-3-yl)-1H-pyrazol-1-yl)methyl)phenyl)acetamide]?
A: IC50: < 50 nM; inhibition at 0.1 µM: 60%; inhibition at 1 µM: 89%

Q: What does the source list for CN1CCN(c2cccc(-c3cnc4[nH]cc(-c5cnn(Cc6cccc(F)c6)c5)c4c3)c2)CC1 [Example 36, 3-(1-(3-fluorobenzyl)-1H-pyrazol-4-yl)-5-(3-(4-methylpiperazin-1-yl)phenyl)-1H-pyrrolo[2,3-b]pyridine]?
A: IC50: < 50 nM; inhibition at 0.1 µM: 96%; inhibition at 1 µM: 99%

Q: Cc1nn(Cc2cccc(C#N)c2)c(C)c1-c1c[nH]c2ncc(-c3ccc(N4CCNCC4)cc3)cc12 [Example 48, 3-((3,5-dimethyl-4-(5-(4-(piperazin-1-yl)phenyl)-1H-pyrrolo[2,3-b]pyridin-3-yl)-1H-pyrazol-1-yl)methyl)benzonitrile hydrochloride] was tested. Which IC50 did it give?
A: Its IC50 is 50 to 250 nM.

Q: And the inhibition at 0.1 µM?
A: The inhibition at 0.1 µM was 52%.

Q: And the inhibition at 1 µM?
A: The inhibition at 1 µM was 83%.

Q: Which results are given for N#CCCN1CCN(c2cccc(-c3cnc4[nH]cc(-c5cnn(Cc6cccc(F)c6)c5)c4c3)c2)CC1 [Example 34, 3-(4-(3-(3-(1-(3-fluorobenzyl)-1H-pyrazol-4-yl)-1H-pyrrolo[2,3-b]pyridin-5-yl)phenyl)piperazin-1-yl) propanenitrile]?
A: IC50: < 50 nM; inhibition at 0.1 µM: 91%; inhibition at 1 µM: 99%

Q: Which IC50 does the source give for Fc1cc(-c2cnc3[nH]cc(-c4cnn(CCc5ccccc5)c4)c3c2)ccc1C1CCNCC1 [Example 167, 5-(3-fluoro-4-(piperidin-4-yl)phenyl)-3-(1-phenethyl-1H-pyrazol-4-yl)-1H-pyrrolo[2,3-b]pyridine] here?
A: Its IC50 is 50 to 250 nM.

Q: And the inhibition at 0.1 µM?
A: The inhibition at 0.1 µM was 69%.

Q: And the inhibition at 1 µM?
A: The inhibition at 1 µM was 97%.

Q: With COc1ccc(-c2cc3c(-c4c(C)nn(Cc5cc(F)cc(F)c5)c4C)c[nH]c3nc2C2CC2)cc1NS(C)(=O)=O [Example 27, N-(5-(6-cyclopropyl-3-(1-(3,5-difluorobenzyl)-3,5-dimethyl-1H-pyrazol-4-yl)-1H-pyrrolo[2,3-b]pyridin-5-yl)-2-methoxyphenyl)methanesulfonamide] as the compound, how does the inhibition at 0.1 µM read?
A: Its inhibition at 0.1 µM is 9%.

Q: And the inhibition at 1 µM?
A: The inhibition at 1 µM was 8%.

Q: For CN1CCN(c2ccc(-c3cnc4[nH]cc(-c5cnn(CCc6ccccc6)c5)c4c3)cn2)CC1 [Example 141, 5-(6-(4-methylpiperazin-1-yl)pyridin-3-yl)-3-(1-phenethyl-1H-pyrazol-4-yl)-1H-pyrrolo[2,3-b]pyridine], which IC50 is on record?
A: Its IC50 is under 50 nM.

Q: What about the inhibition at 0.1 µM of the same compound?
A: The inhibition at 0.1 µM was 58%.

Q: What about the inhibition at 1 µM of the same compound?
A: The inhibition at 1 µM was 96%.

Q: For Fc1cc(F)cc(Cn2ccc(-c3c[nH]c4ncc(-c5ccc(N6CCNCC6)cc5)cc34)n2)c1 [Example 111, 3-(1-(3,5-difluorobenzyl)-1H-pyrazol-3-yl)-5-(4-(piperazin-1-yl)phenyl)-1H-pyrrolo[2,3-b]pyridine], which IC50 is on record?
A: Its IC50 is under 50 nM.

Q: What about the inhibition at 0.1 µM of the same compound?
A: Its inhibition at 0.1 µM is 82%.

Q: What about the inhibition at 1 µM of the same compound?
A: The inhibition at 1 µM was 100%.

Q: With COc1ccc(-c2cc3c(-c4c(C)nn(Cc5cccc(F)c5)c4C)c[nH]c3nc2C2CC2)cc1NS(C)(=O)=O [Example 28, N-(5-(6-cyclopropyl-3-(1-(3-fluorobenzyl)-3,5-dimethyl-1H-pyrazol-4-yl)-1H-pyrrolo[2,3-b]pyridin-5-yl)-2-methoxyphenyl)methanesulfonamide] as the compound, how does the inhibition at 0.1 µM read?
A: The inhibition at 0.1 µM was 14%.

Q: What about the inhibition at 1 µM of the same compound?
A: Its inhibition at 1 µM is 49%.

Q: How did the IC50 turn out when O=C(CO)N1CCN(c2ccc(-c3cnc4[nH]cc(-c5cnn(Cc6cccc(F)c6)c5)c4c3)cc2)CC1 [Example 128, 1-(4-(4-(3-(1-(3-fluorobenzyl)-1H-pyrazol-4-yl)-1H-pyrrolo[2,3-b]pyridin-5-yl)phenyl)piperazin-1-yl)-2-hydroxyethanone] was run?
A: The IC50 was under 50 nM.

Q: What about the inhibition at 0.1 µM of the same compound?
A: Its inhibition at 0.1 µM is 92%.

Q: And the inhibition at 1 µM?
A: The inhibition at 1 µM was 94%.

Q: For OC1CCN(c2ccc(-c3cnc4[nH]cc(-c5cnn(Cc6cccc(F)c6)c5)c4c3)cc2)CC1 [Example 122, 1-(4-(3-(1-(3-fluorobenzyl)-1H-pyrazol-4-yl)-1H-pyrrolo[2,3-b]pyridin-5-yl)phenyl)piperidin-4-ol], which IC50 is on record?
A: Its IC50 is under 50 nM.

Q: And the inhibition at 0.1 µM?
A: Its inhibition at 0.1 µM is 90%.

Q: What about the inhibition at 1 µM of the same compound?
A: The inhibition at 1 µM was 96%.

Q: How did the IC50 turn out when CS(=O)(=O)Nc1cccc(-c2cnc3[nH]cc(-c4cnn(Cc5ccccc5F)c4)c3c2)c1 [Example 1, N-(3-(3-(1-(2-fluorobenzyl)-1H-pyrazol-4-yl)-1H-pyrrolo[2,3-b]pyridin-5-yl)phenyl)methanesulfonamide] was run?
A: The IC50 was 50 to 250 nM.

Q: And the inhibition at 1 µM?
A: Its inhibition at 1 µM is 92%.

Q: Which IC50 does the source give for C[C@H](O)CN1CCN(c2ccc(-c3cnc4[nH]cc(-c5cnn(Cc6cccc(F)c6)c5)c4c3)c(F)c2)CC1 [Example 121, (S)-1-(4-(3-fluoro-4-(3-(1-(3-fluorobenzyl)-1H-pyrazol-4-yl)-1H-pyrrolo[2,3-b]pyridin-5-yl)phenyl)piperazin-1-yl)propan-2-ol] here?
A: Its IC50 is under 50 nM.

Q: And the inhibition at 0.1 µM?
A: Its inhibition at 0.1 µM is 91%.

Q: And the inhibition at 1 µM?
A: Its inhibition at 1 µM is 95%.

Q: Which IC50 does the source give for C[C@H](O)CN1CCN(c2ccc(-c3cnc4[nH]cc(-c5cnn(Cc6cccc(O)c6)c5)c4c3)cn2)CC1 [Example 151, (S)-3-((4-(5-(6-(4-(2-hydroxypropyl)piperazin-1-yl)pyridin-3-yl)-1H-pyrrolo[2,3-b]pyridin-3-yl)-1H-pyrazol-1-yl)methyl)phenol] here?
A: Its IC50 is under 50 nM.

Q: And the inhibition at 0.1 µM?
A: The inhibition at 0.1 µM was 92%.

Q: What about the inhibition at 1 µM of the same compound?
A: Its inhibition at 1 µM is 97%.

Q: What does the source list for OCCN1CCN(c2ccc(-c3cnc4[nH]cc(-c5cnn(Cc6cccc(F)c6)c5)c4c3)cc2)CC1 [Example 126, 2-(4-(4-(3-(1-(3-fluorobenzyl)-1H-pyrazol-4-yl)-1H-pyrrolo[2,3-b]pyridin-5-yl)phenyl)piperazin-1-yl)ethanol]?
A: IC50: < 50 nM; inhibition at 0.1 µM: 95%; inhibition at 1 µM: 97%

Q: For Fc1cccc(Cn2cc(-c3c[nH]c4ncc(-c5cccc(CC6CCNCC6)c5)cc34)cn2)c1 [Example 102, 3-(1-(3-fluorobenzyl)-1H-pyrazol-4-yl)-5-(3-(piperidin-4-ylmethyl)phenyl)-1H-pyrrolo[2,3-b]pyridine], which IC50 is on record?
A: The IC50 was under 50 nM.

Q: What about the inhibition at 0.1 µM of the same compound?
A: Its inhibition at 0.1 µM is 91%.

Q: And the inhibition at 1 µM?
A: The inhibition at 1 µM was 100%.

Q: Which IC50 does the source give for O=C(CC1CC1)N1CCN(c2ccc(-c3cnc4[nH]cc(-c5cnn(Cc6cccc(F)c6)c5)c4c3)cn2)CC1 [Example 160, 2-cyclopropyl-1-(4-(5-(3-(1-(3-fluorobenzyl)-1H-pyrazol-4-yl)-1H-pyrrolo[2,3-b]pyridin-5-yl)pyridin-2-yl)piperazin-1-yl)ethanone] here?
A: The IC50 was 50 to 250 nM.

Q: What about the inhibition at 0.1 µM of the same compound?
A: The inhibition at 0.1 µM was 20%.

Q: And the inhibition at 1 µM?
A: The inhibition at 1 µM was 84%.
